From publication PMC5937995 (Bioorganic & medicinal chemistry, 2018)
pEC50, pIC50: −log10 of the molar value. Values belong to the compound of their own block, whether it stands above or below them. Residues, ends and D or L forms follow the SMILES beside them.

Columns and labels:
PAR1 [1] = target: T1, PAR1 (Homo sapiens, UniProt P25116); experiment: PAR1
T1 sequence (P25116 22-425): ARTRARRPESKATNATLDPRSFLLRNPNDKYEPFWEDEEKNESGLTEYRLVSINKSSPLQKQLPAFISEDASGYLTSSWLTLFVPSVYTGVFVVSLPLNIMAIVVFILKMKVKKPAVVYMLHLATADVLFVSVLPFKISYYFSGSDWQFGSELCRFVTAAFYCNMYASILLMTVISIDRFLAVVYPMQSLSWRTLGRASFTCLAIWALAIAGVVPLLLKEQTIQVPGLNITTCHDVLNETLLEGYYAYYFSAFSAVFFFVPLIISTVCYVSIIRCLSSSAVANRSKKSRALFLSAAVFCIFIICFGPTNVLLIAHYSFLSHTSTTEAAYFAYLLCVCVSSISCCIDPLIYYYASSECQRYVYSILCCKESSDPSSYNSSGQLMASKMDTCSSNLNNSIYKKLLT

human platelets = settings: cited from earlier work; for pIC50: read-out: potency in P-selectin assay, human platelets
Aqueous solubility = format: physicochemical; settings: turbid suspensions observed at high concentrations
[2] = cited from earlier work
PAR1 [3] = settings: cited from earlier work
PAR1 [4] = settings: platelet membranes; cited from earlier work
cardiac infarct size = settings: murine myocardial ischemia-reperfusion injury; cited from earlier work
[5] = 5 μM TFLLRN-NH2, EA.hy926 cells

activity in PAR1 iCa2+ assay (in words) (PAR1 [1]; [5]): poorly active
Structure (SMILES): CCCCC(=O)Nc1cccc(NC(=O)c2ccccc2Br)c1 [EMG-23, 2-Bromo-N-(3-pentanamidophenyl)benzamide]

pEC50 (PAR1 [1]): 5.32
Structure (SMILES): CC(C)C[C@H](NC(=O)[C@H](CC(C)C)NC(=O)[C@H](Cc1ccccc1)NC(=O)[C@@H](N)[C@@H](C)O)C(=O)N[C@@H](CCCNC(=N)N)C(=O)N[C@@H](CC(N)=O)C(N)=O [TFLLRN-NH2, reference compound] (H-TFLLRN-NH2)

aqueous solubility (Aqueous solubility): low aqueous solubility | pIC50 (PAR1 [1]): 7.49 | % Inhibition (PAR1 [1]; in presence of 5 μM TFLLRN-NH2, EA.hy926 cells): 95%
Structure (SMILES): CCOC(=O)N[C@@H]1CC[C@@H]2[C@@H](C1)C[C@H]1C(=O)O[C@H](C)[C@H]1[C@H]2/C=C/c1ccc(-c2cccc(F)c2)cn1 [Vorapaxar, reference compound]

activity in PAR1 iCa2+ assay (in words) (PAR1 [1]; [5]): only modest inhibition of PAR1
Structure (SMILES): C#CCCC(=O)Nc1cccc(NC(=O)c2ccccc2Br)c1 [RR-10, 2-Bromo-N-(3-(pent-4-ynamido)phenyl)benzamide]

fold less potent than RWJ-58259 (PAR1 [1]; [5]): 15 fold
Structure (SMILES): C#CCCC(=O)NCC[C@H](NC(=O)[C@H](Cc1ccc(F)c(F)c1)NC(=O)Nc1ccc2c(CN3CCCC3)nn(Cc3c(Cl)cccc3Cl)c2c1)C(=O)NCc1ccccc1 [DG-207, N-((S)-4-(Benzylamino)-3-((S)-2-(3-(1-(2,6-dichlorobenzyl)-3-(pyrrolidin-1-ylmethyl)-1H-indazol-6-yl)ureido)-3-(3,4-difluorophenyl)propanamido)-4-oxobutyl)pent-4-ynamide]

Further lines, the compound ahead of its results:

Structure (SMILES): CCCCNc1cccc(NC(=O)c2ccccc2Br)c1 [RR-90]
pIC50 (human platelets): 6.47

Structure (SMILES): CC(C)CC(=O)Nc1cccc(NC(=O)c2ccccc2Br)c1 [CJD-125]
plasma stability relative to ML161 [2]: improved plasma stability | potency relative to ML161 in platelet P-selectin assay (human platelets): equipotency | activity in PAR1 iCa2+ assay (in words) (PAR1 [1]; [5]): less potent than ML161 and did not give a good concentration-response

Structure (SMILES): NCC[C@H](NC(=O)[C@H](Cc1ccc(F)c(F)c1)NC(=O)Nc1ccc2c(CN3CCCC3)cn(Cc3c(Cl)cccc3Cl)c2c1)C(=O)NCc1ccccc1 [RWJ-56110]
mode of inhibition of radiolabeled PAR1 activating peptide binding (PAR1 [3]): competitive inhibitor

Structure (SMILES): CCCC(=O)Nc1cccc(NC(=O)c2ccccc2Br)c1 [ML161]
aqueous solubility (Aqueous solubility): low aqueous solubility | mode of inhibition of SFLLRN-NH2 (human platelets; platelet P-selectin assay): non-competitive inhibitor | pIC50 (human platelets): 6.59 | inhibition of [3H]TRAP binding (PAR1 [4]): does not significantly inhibit binding | cardiac infarct size (cardiac infarct size): significantly decreased

Structure (SMILES): CCCC(=O)Nc1cccc(NC(=O)c2ccccc2N=[N+]=[N-])c1 [DG-5, 2-Azido-N-(3-butyramidophenyl)benzamide]
activity in PAR1 iCa2+ assay (in words) (PAR1 [1]; [5]): only modest activity
